Experimental data reported in patent US20040077599A1, “Novel spiro[2.4]heptane amino carboxy compounds and derivatives thereof” (priority 2000, published 2004).
Where two headings read alike, the source gives them in different places.

Legend:
[1] = target: Group I metabotropic glutamate receptors (mGluRs); assay: Phosphatidylinositol assay (inositol phosphate accumulation in neonatal tissue slices); format: cell-based, Sprague Dawley rat; details: neonatal rat slices, 45 minutes; for EC50: antagonist mode vs ACPD; for Group I Agonist: increase in intracellular free inositol phosphate accumulation; for Group I Antagonist: inhibits inositol phosphate accumulation induced by ACPD
Method: Phosphatidylinositol (PI) hydrolysis can be measured as described below: Briefly, cross-chopped slices are prepared from neonatal Sprague Dawley rat tissue (age: p7-p14). The slices are pre-labelled with [^3H] myo-inositol. Following pre-labelling, the slices are incubated with the test drugs and standard (known Group I agonists i.e. ACPD) for a period of 45 minutes. The incubation is terminated by the addition of chloroform/methanol/HCl (100:200:2). The resulting mixture is separated into two phases by the addition of chloroform and distilled water. The aqueous fraction is applied to ion exchange columns, and inositol phosphates are eluted using 800 mM Ammonium Formate/100 mM Formic Acid. The eluent is then analyzed using liquid scintillation counting. The amount of inositol phosphate accumulation is expressed as a percentage of that induced by ACPD.
Group I metabotropic glutamate receptors (mGluRs) are positively coupled on inositol phosphate metabolism. Agonists at these receptors lead to an increase in intracellular free inositol phosphates, while antagonists inhibit the increase in intracellular free inositol phosphate induced by standard agonists (i.e. ACPD).
Cross-chopped slices were prepared from neonatal Sprague Dawley rat tissue (age: p7-p14). The slices were pre-labelled with [^3H] myo-inositol. Following pre-labelling, the slices were incubated with the test compounds and standard (known Group I agonists i.e. ACPD) for a period of 45 minutes. The incubation was terminated by the addition of chloroform/methanol/HCl (100:200:2). The resulting mixture was separated into two phases by the addition of chloroform and distilled water. The aqueous fraction was applied to ion exchange columns, and inositol phosphates were eluted using 800 mM Ammonium Formate/100 mM Formic Acid. The eluent was then analyzed using liquid scintillation counting. The amount of inositol phosphate accumulation was expressed as a percentage of that induced by ACPD.
If the drugs cause an increase in intracellular free inositol phosphate accumulation, they are considered to be Group I agonists. […]

[2] = target: Group II/III metabotropic glutamate receptors (mGluRs); assay: Cyclic AMP assay (forskolin-induced cyclic AMP accumulation in cortical slices); format: cell-based, Sprague Dawley rat; details: rat cortical slices; for Group II/III Agonist: inhibits forskolin-induced cyclic AMP accumulation; for Group II/III Antagonist: inhibits the glutamate-caused decrease in forskolin-induced cyclic AMP accumulation
Method: The assay of cyclic AMP formation can be performed as described previously (Tovey et al., Clinica Chimica Acta, 56, 221-234, 1974). The assay can be modelled on the cyclic AMP assay kit available from Amersham, which in turn, is based on the assay created by Tovey et al. Briefly, samples are prepared from Sprague Dawley rat (225-250 g) cortical slices. Slices are incubated with the drug, and then challenged with forskolin to induce cyclic AMP release. Following termination of the reaction by boiling, the slices are homogenized and centrifuged. Samples of supernatant are then incubated for 2-3 hours with a known quantity of [^3H]cAMP and a binding protein. When the incubation is complete, the bound cyclic AMP is separated from the free cyclic AMP by centrifugation with charcoal. The resulting supernatant (containing free cyclic AMP) is then analyzed by liquid scintillation counting. The amount of unbound cyclic AMP can be calculated from a standard curve previously determined with various samples of free cyclic AMP.
Group II/III metabotropic glutamate receptors (mGluRs) are negatively coupled to adenylate cyclase, and agonists of these receptors lead to a decrease in intracellular cyclic AMP accumulation.
The assay has been modeled on the cyclic AMP assay kit available from Amersham. This kit, in turn, is based on the assay created by Tovey et al. (1974). Briefly, the samples were prepared from Sprague Dawley rat (225-250 g) cortical slices. Slices were incubated with the test compound (drug), and then challenged with forskolin to induce cyclic AMP release. Following termination of the reaction by boiling, the slices were homogenized and centrifuged. Samples of supernatant were then incubated for 2-3 hours with a known quantity of [^3H]cAMP and a binding protein. When the incubation was complete, the bound cyclic AMP was separated from the free cyclic AMP by centrifugation with charcoal. The resulting supernatant (containing free cyclic AMP) was then analyzed by liquid scintillation counting. The amount of unbound cyclic AMP was calculated from a standard curve previously determined with various samples of free cyclic AMP.
If the drugs tested inhibit forskolin-induced cyclic AMP accumulation, they are considered to be Group II/III agonists. Conversely, if they inhibit the decrease in forskolin-induced cyclic AMP accumulation caused by glutamate, they are considered to be Group II/III antagonists.

[3] = agonist mode, read-out: EC50 (M), Group II/III Agonist
[4] = antagonist mode vs glutamate, read-out: EC50 (M), Group II/III Antagonist

EC50 [1] [nM] | Group I Agonist [1] | Group I Antagonist [1] | EC50 [2, 3] [M] | Group II/III Agonist [2] | Group II/III Antagonist [2] | EC50 [2, 4] [M] | SMILES
88 | No | Yes | 1.6e-06 | Yes | Yes |  | NC(C(=O)O)C1CCCC12CC2C(=O)O (centres unmarked) [Compound 26, Spiro[4,2]heptane-1-carboxy-4-glycine]
94 | No | Yes |  | No | yes | 1e-06 | N[C@]1(C(=O)O)CCCC12CC2C(=O)O (some centres unmarked) [Compound 8, Spiro[2.4]heptane-4-amino-1,4-dicarboxylic acid]
0.84 | No | Yes | 8.7e-11 | Yes | Yes |  | NC(C(=O)O)C1CCCC12CC2C(=O)O (centres unmarked) [Compound 27, Spiro[4,2]heptane-1-carboxy-4-glycine]
220 | No | Yes |  | No | Yes | 1.4e-09 | N[C@@]1(C(=O)O)CCCC12CC2C(=O)O (some centres unmarked) [Compound 7, Spiro[2.4]heptane-4-amino-1,4-dicarboxylic acid]

SMILES | EC50 [1] [nM] | Group I Agonist [1] | Group I Antagonist [1] | EC50 [2, 3] [M] | Group II/III Agonist [2] | Group II/III Antagonist [2] | EC50 [2, 4] [M]
NC1(C(=O)O)CC2(CC2C(=O)O)c2ccccc21 (centres unmarked) [Compound 22, 1-Amino-1-carboxyindan-3-spiro-cyclopropanecarboxylic Acid] |  | No | No |  | No | No | 8.7e-10
NC1(C(=O)O)CCCC12C(C(=O)O)C2c1ccccc1 (centres unmarked) [Compound 16, Spiro[2.4]heptane4-amino-2-phenyl-1,4-dicarboxylic Acid] | 100 | No | Yes | 1e-09 | Yes | No | 
